Test results taken from US20030143189A1, “Therapy for topical diseases” (priority 2001, published 2003).

Test system: plantar warts
Test: Treatment of plantar warts on a patient's feet with in situ polymeric film versus freezing
Assay type: in vivo, human
Experimental: A patient presents to a dermatologist with two similar plantar warts on the soles of their left and right feet. The wart on the right foot is treated by freezing with liquid nitrogen.

`N#N` [liquid nitrogen] was tested. Which “pain caused by the treatment (freeze burn)” value (plantar wart on sole of foot) did it give?
The value was “makes walking on the foot painful for several days”.

And the “time until the wart resolves” value (plantar wart on sole of foot, film re-applied every 3-4 days)?
Its value is 3 weeks.

What about the “return of the wart after resolution” value (plantar wart, film treatment continued two weeks after resolution) of the same molecule?
Its value is “has returned after two months”.
